Literature values in patent US20080268043A1, “Controlled Release Compositions Comprising an Antipsychotic Agent” (ELAN PHARMA INTERNATIONAL LIMITED, priority 2005, published 2008).

Conditions: within the proposed clinical dose range

OCCOCCN1CCN(C2=Nc3ccccc3Sc3ccccc32)CC1 [quetiapine]
mean terminal half-life: about 6 hours
